# Earlier results as cited in PMC8295177 (Cancer discovery, 2021).
# Key:
# EGFRex20ins mutants = settings: cited from earlier work
# [1] = test system: unselected stage IV NSCLC; settings: second-line monotherapy; cited from earlier work
SMILES,inhibition of EGFRex20ins mutants in vitro (EGFRex20ins mutants),median duration of response [1]
C=CC(=O)N1CCC(Oc2cc3c(Nc4ccc(Cl)c(Cl)c4F)ncnc3cc2OC)CC1 [Poziotinib],potent inhibition,–
CC(=O)O[C@@]12CO[C@@H]1C[C@H](O)[C@@]1(C)C(=O)[C@H](O)C3=C(C)[C@@H](OC(=O)[C@H](O)[C@@H](NC(=O)OC(C)(C)C)c4ccccc4)C[C@@](O)([C@@H](OC(=O)c4ccccc4)[C@H]21)C3(C)C [Docetaxel],–,approximately 6 months
